Data on 12 molecules can be found in US20040110821A1, “GAL3 receptor antagonists for the treatment of affective disorders” (priority 2002, published 2004).

The Ki is the equilibrium dissociation constant of an inhibitor or competing ligand from its target.

The subject of assay [1] is Male albino Sprague-Dawley rats. As to the kind of experiment: Rat Social Interaction Test (SIT). The format is in vivo. The protocol:
Rats were allowed to acclimate to the animal care facility for 5 days and were housed singly for 5 days prior to testing. Animals were handled for 5 minutes per day. The design and procedure for the Social Interaction Test was carried out as previously described by Kennett, et al. (1997). On the test day, weight matched pairs of rats (±5%), unfamiliar to each other, were given identical treatments and returned to their home cages. Animals were randomly divided into 5 treatment groups, with 5 pairs per group, and were given one of the following i.p. treatments: Example 92 (10, 30 or 100 mg/kg), vehicle (1 ml/kg) or chlordiazepoxide (5 mg/kg). Dosing was 1 hour prior to testing. Rats were subsequently placed in a white perspex test box or arena (54×37×26 cm), whose floor was divided up into 24 equal squares, for 15 minutes. An air conditioner was used to generate background noise and to keep the room at approximately 74° F. All sessions were videotaped using a JVC camcorder (model GR-SZ1, Elmwood Park, N.J.) with either TDK (HG ultimate brand) or Sony 30 minute videocassettes. All sessions were conducted between 1:00-4:30 P.M. Active social interaction, defined as grooming, sniffing, biting, boxing, wrestling, following and crawling over or under, was scored using a stopwatch (Sportsline model no. 226, 1/100 sec. discriminability). The number of episodes of rearing (animal completely raises up its body on its hind limbs), grooming (licking, biting, scratching of body), and face washing (i.e. hands are moved repeatedly over face), and number of squares crossed were scored. Passive social interaction (animals are lying beside or on top of each other) was not scored. All behaviors were assessed later by an observer who was blind as to the treatment of each pair. At the end.of each test, the box was thoroughly wiped with moistened paper towels.
Male albino Sprague-Dawley rats (Taconic Farms, N.Y.) were housed in pairs under a 12 hr light dark cycle (lights on at 0700 hrs.) with free access to food and water.
Example 92 was dissolved in 100% DMSO (Sigma Chemical Co., St. Louis, Mo.). Chlordiazepoxide (purchased from Sigma Chemical Co., St. Louis, Mo.) was dissolved in double distilled water. The vehicle consisted of 50% DMSO (v/v). All drug solutions were made up 10 minutes prior to injection and the solutions were discarded.
Example 34 was dissolved in 5% lactic acid, v/v. The vehicle consisted of 100% dimethylacetamide (DMA) and this was used to make up all drug solutions. All drug solutions were made up fresh each day and any unused solutions were discarded at the end of the test day. The volume of drug solution administered was 1 ml/kg.
The social interaction data (time interacting, rearing and squares crossed) were subjected to a randomized, one-way ANOVA and post hoc tests conducted using the Student-Newman-Keuls test. The data were subjected to a test of normality (Shapiro-Wilk test). The data were analyzed using the GBSTAT program, version 6.5 (Dynamics Microsystems, Inc., Silver Spring, Md., 1997). All data are presented as means ±S.E.M.

In another assay the target is T1, human GAL2 receptor (Homo sapiens, UniProt O43603).
T1 construct: expressed in transfected cells
T1 sequence (O43603 1-387): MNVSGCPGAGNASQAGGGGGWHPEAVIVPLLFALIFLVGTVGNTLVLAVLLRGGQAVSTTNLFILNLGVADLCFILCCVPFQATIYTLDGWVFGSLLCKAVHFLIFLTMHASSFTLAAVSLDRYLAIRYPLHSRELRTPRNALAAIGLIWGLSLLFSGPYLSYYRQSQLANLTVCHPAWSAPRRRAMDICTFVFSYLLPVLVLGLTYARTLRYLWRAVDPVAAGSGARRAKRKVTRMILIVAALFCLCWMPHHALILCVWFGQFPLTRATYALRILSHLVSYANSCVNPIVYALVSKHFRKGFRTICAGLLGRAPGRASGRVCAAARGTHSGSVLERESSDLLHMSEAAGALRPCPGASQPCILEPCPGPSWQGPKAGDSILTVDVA
As to the kind of experiment: Radioligand binding at cloned human GAL2 receptor. As to conditions: pyrimidines, Tables 1-3, read-out: Ki (nM) GalR2. Here is the method: (§1) The present invention provides for a method of determining the binding affinity of a GAL3 antagonist, wherein the GAL3 antagonist is dissolved in a “suitable solvent”. A “suitable solvent” means one which permits the measurement of binding affinity of the GAL3 antagonist to the human GAL3 receptor at concentrations less than 1 μM, preferably less than 100 nM. Examples of solvents include, but are not limited to, DMSO, ethanol, N,N-dimethylacetamide, or water. For indolones, the preferred solvent is 3% DMSO (final concentration in the assay). For pyrimidines, the preferred solvent is 1% ethanol/0.09% polypuronic acid F-127 (final concentration in the assay). For any other type of compounds, the preferred solvent is the solvent which permits the measurement of binding affinity of a GAL3 antagonist at the lowest concentration. Once a suitable solvent is ascertained for the binding assay of the human GAL3 receptor, the same solvent is used in assays to determine the binding affinity for instance, at the GAL1 receptor.
(§2) The binding properties of the pyrimidines of the present invention were evaluated at the cloned human galanin receptors, GAL1, GAL2, and GAL3, using protocols described herein.
(§3) The binding properties of the indolones of the present invention were evaluated at the cloned human galanin receptors, GAL1, GAL2, and GAL3, using protocols described herein.
(§4) LM(tk-) cells were stably transfected with the human GAL1 or GAL3 receptor. CHO cells were stably transfected with the human GAL2 receptor.
(§5) cDNAs for the human and rat GAL1, and human and rat GAL3 receptors were transfected with a G-418 resistant gene into the mouse fibroblast LM(tk-) cell line by a calcium phosphate transfection method (Cullen, 1967). Stably transfected cells were selected with G-418. Human and rat GAL2 receptors were similarly transfected into CHO cells.
(§6) Membranes were harvested from stably transfected LM(tk-) cells. Adherent cells were washed twice in ice-cold phosphate buffered saline (138 mM NaCl, 8.1 mM Na2HPO4, 2.5 mM KCl, 1.2 mM KH2PO4, 0.9 mM CaCl2, 0.5 mM MgCl2, pH 7.4) and lysed by sonication in ice-cold sonication buffer (20 mM Tris-HCl, 5 mM EDTA, pH 7.7). Large particles and debris were cleared by low speed centrifugation (200×g, 5 min, 4° C.). Membranes were collected from the supernatant fraction by centrifugation (32,000×g, 18 min, 4° C.), washed with ice-cold hypotonic buffer, and collected again by centrifugation (32,000×g, 18 min, 4° C.). The final membrane pellet was resuspended by sonication into a small volume of ice-cold binding buffer (−1 ml for every 5 plates: 10 mM NaCl, 20 mM HEPES, 0.22 mM KH2PO4, 1.26 mM CaCl2, 0.81 mM MgSO4, pH 7.4). Protein concentration was measured by the Bradford method (Bradford, 1976) using Bio-Rad Reagent, with bovine serum albumin as a standard. Membranes were held on ice for up to one hour and used fresh, or flash frozen and stored in liquid nitrogen. Membranes were prepared similarly from CHO cells.
(§7) Galanin Receptors: Binding assays were performed according to the following published methods: human GAL3 (PCT International Publication No. WO 98/15570), human GAL1 (PCT International Publication No. WO 95/2260) human GAL2 (PCT International Publication No. WO 97/26853).
(§8) Binding data were analyzed using nonlinear regression and statistical techniques available in the GraphPAD Prism package (San Diego, Calif.). Enzymatic assay data were derived from a standard curve of reference compound data.

The target in the next assay is T2, human GAL3 receptor (Homo sapiens, UniProt O60755).
T2 construct: expressed in transfected cells
T2 sequence (O60755 1-368): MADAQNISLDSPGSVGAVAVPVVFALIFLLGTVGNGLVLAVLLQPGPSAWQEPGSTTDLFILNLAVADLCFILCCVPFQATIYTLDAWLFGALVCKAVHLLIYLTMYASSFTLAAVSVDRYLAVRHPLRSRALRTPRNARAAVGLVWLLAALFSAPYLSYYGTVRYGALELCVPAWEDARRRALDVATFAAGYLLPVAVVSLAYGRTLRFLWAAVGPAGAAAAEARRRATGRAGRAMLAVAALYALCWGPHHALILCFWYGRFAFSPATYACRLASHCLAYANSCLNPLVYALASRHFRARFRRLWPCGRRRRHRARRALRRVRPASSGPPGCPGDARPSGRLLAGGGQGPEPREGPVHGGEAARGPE
Put plainly: Radioligand binding at cloned human GAL3 receptor. Particulars: cloned human GAL3 receptor. The protocol: as §1, §2, §3, §4, §5, §6, §7, §8

The target of the next assay is T3, human GAL1 receptor (Homo sapiens, UniProt P47211).
T3 construct: expressed in transfected cells
T3 sequence (P47211 1-349): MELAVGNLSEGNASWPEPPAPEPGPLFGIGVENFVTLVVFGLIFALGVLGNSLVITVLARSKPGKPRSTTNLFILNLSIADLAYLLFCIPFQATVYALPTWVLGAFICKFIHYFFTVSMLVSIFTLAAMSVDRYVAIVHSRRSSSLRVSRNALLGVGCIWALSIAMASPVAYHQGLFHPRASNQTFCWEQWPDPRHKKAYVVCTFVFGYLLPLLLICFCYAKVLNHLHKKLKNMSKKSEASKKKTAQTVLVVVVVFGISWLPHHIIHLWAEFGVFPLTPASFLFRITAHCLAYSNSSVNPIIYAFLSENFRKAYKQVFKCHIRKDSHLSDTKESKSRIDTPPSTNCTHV
As to the kind of experiment: Radioligand binding at cloned human GAL1 receptor. Particulars: pyrimidines, Tables 1-3, read-out: Ki (nM) GalR1. The protocol:
as §1, §2, §3, §4, §5, §6, §7, §8

[2] abbreviates: pyrimidines, Tables 1-3, read-out: Ki (nM) GalR3.
The mark [3] stands for this setting: indolones, Table 4a, read-out: Ki (nM) Gal3.
Setting [4] is: pyrimidines, Table 3a, read-out: Ki (nM) Gal3.

Read-outs that look alike come from different tables or passages of the source. Marks after values point to notes of the source that are not given here.

For `CNC1=Nc2ccc(Cl)cc2C(c2ccccc2)=[N+]([O-])C1` [Chlordiazepoxide, chlordiazepoxide, reference compound], the “Social Interaction (sec)” value in assay [1] (5 mg/kg i.p., 1 hour before 15 min test, unfamiliar rats) is given as 188 ± 15^b sec; in assay [1] (5 mg/kg p.o., one hour before test, unfamiliar cage mates in a familiar arena) it was 122 ± 18^$ sec.

For the molecule `CN(CCc1c[nH]c2ccccc12)c1nc(NCCc2ccccc2)cc(N2CCCCC2)n1` [Example 12], the Ki is 2000 nM on human GAL2 receptor, 322 nM at human GAL3 receptor (setting [2]) and above 5000 nM at human GAL1 receptor.

As to `C[C@H]1CC2CC([C@@H]1Nc1cc(N(C)C)nc(Nc3ccccc3)n1)C2(C)C` (stereo partly drawn) [Example 71], the Ki on human GAL2 receptor turned out to be 944 nM; at human GAL3 receptor (setting [2]), 72 nM.

In the case of `CN1C(=O)c2ccc(/N=C3\C(=O)N(c4ccccc4)c4ccccc43)cc2C1=O` [Example 110, 2-METHYL-5-[(2-OXO-1-PHENYL-1,2-DIHYDRO-3H-INDOL-3-YLIDENE)AMINO]-2H—ISOINDOLE-1,3(2H)-DIONE], at human GAL3 receptor (setting [3]), the Ki was determined as 138 nM.

With `CN(C)c1cc(NC23CC4CC(CC2C4)C3)nc(N2CCN(Cc3ccccc3)CC2)n1` [Example 137], the Ki on human GAL3 receptor (setting [4]) was 124 nM.

In the case of `CN(C)c1cc(N[C@@H]2C[C@H]3CC[C@]2(C)C3(C)C)nc(N2CCN(Cc3ccccc3)CC2)n1` [Example 153], the Ki at human GAL3 receptor (setting [4]) was 55 nM.

Take `CN(C)c1cc(Nc2ccccc2Cl)nc(N2CCN(c3ccccn3)CC2)n1` [Example 195]: the Ki at human GAL3 receptor (setting [4]) stood at 388 nM.

Take `CN(C)c1cc(Nc2ccc(Cl)cc2C(F)(F)F)nc(N2CCN(Cc3ccccc3)CC2)n1` [Example 239]: the Ki at human GAL3 receptor (setting [4]) stood at 59 nM.

In the case of `O=C1/C(=N\c2ccc(Oc3ccccc3)cc2)c2ccccc2N1c1ccsc1` [Example 268, 3Z)-3-[(4-PHENOXYPHENYL)IMINO]-1-(3-THIENYL)-1,3-DIHYDRO-2H-INDOL-2-ONE], the Ki at human GAL3 receptor (setting [3]) is 57 nM.

Consider `Cc1ccc(/N=C2\C(=O)N(c3ccccc3)c3ccccc32)c(Cl)c1` [Example 286], for which the Ki on human GAL3 receptor (setting [3]) was found to be 38 nM.

With `O=C1/C(=N\c2ccc(-c3cccc(C(F)(F)F)c3)cc2)c2ccccc2N1c1ccccc1` [Example 305, (3Z)-1-PHENYL-3-{[3′-(TRIFLUOROMETHYL)[1,1′-BIPHENYL]-4-YL]IMINO}-1,3-DIHYDRO-2H-INDOL-2-ONE], the Ki on human GAL3 receptor (setting [3]) worked out at 638 nM.

As to “N^2-[2-(1H-INDOL-3-YL)ETHYL]-N^2,N^4,N^4-TRIMETHYL-(2-NAPHTHYL)-6-(1-PIPERIDINYL)-2,4,6-PYRIMIDINETRIAMINE [Example 79]”, the values for the Ki at human GAL2 receptor, on human GAL3 receptor (setting [2]) and at human GAL1 receptor were 1660 nM, 190 nM and 3800 nM, respectively.
